Test results published in ChEMBL document CHEMBL3885881, “DrugMatrix”.

Species on record: Rattus norvegicus
Assay: DrugMatrix - Regimen: Daily Repeat
Type: toxicity, organism-based, Sprague-Dawley
Set-up: regimen Daily Repeat, gender Male, age 6-8 weeks
Conditions: in vivo, po, route oral GAVAGE, vehicle 100 % WATER; for ABSOLUTE BASOPHIL / ABSOLUTE EOSINOPHIL / ABSOLUTE LYMPHOCYTE / ABSOLUTE MONOCYTE / ABSOLUTE SEGMENTED NEUTROPHIL / BASOPHIL / EOSINOPHIL / ERYTHROCYTE COUNT / HEMATOCRIT / HEMOGLOBIN / LEUKOCYTE COUNT / LYMPHOCYTE / MEAN CORPUSCULAR HEMOGLOBIN / MEAN CORPUSCULAR HEMOGLOBIN CONCENTRATION / MEAN CORPUSCULAR VOLUME / MONOCYTE / NEUTROPHIL / NUCLEATED RED BLOOD CELLS / PLATELET COUNT: tissue Blood; for ALANINE AMINOTRANSFERASE / ALBUMIN / ALKALINE PHOSPHATASE / ASPARTATE AMINOTRANSFERASE / BLOOD UREA NITROGEN / CARBON DIOXIDE / CHLORIDE / CHOLESTEROL / CREATINE PHOSPHOKINASE / CREATININE / GLUCOSE / LACTATE DEHYDROGENASE / LIPASE / PHOSPHORUS / POTASSIUM / SODIUM / TOTAL BILIRUBIN / TOTAL PROTEIN / URIC ACID: tissue Plasma
[1] = 0 mg/kg, 72 h, dose level Control, time 3 day
[2] = 0 mg/kg, 120 h, dose level Control, time 5 day
[3] = 6 mg/kg, 72 h, dose level Low, time 3 day

## CN1CCN(C(=O)OC2c3nccnc3C(=O)N2c2ccc(Cl)cn2)CC1 (centres undefined) [ZOPICLONE]
[1]
  ABSOLUTE BASOPHIL: 0 CELLS/uL
  ABSOLUTE EOSINOPHIL: 86.33 CELLS/uL
  ABSOLUTE LYMPHOCYTE: 12090.17 CELLS/uL
  ABSOLUTE MONOCYTE: 166.67 CELLS/uL
  ABSOLUTE SEGMENTED NEUTROPHIL: 1090.17 CELLS/uL
  BASOPHIL: 0%
  EOSINOPHIL: 0.67%
  ERYTHROCYTE COUNT: 5.57 x10E6/uL
  HEMATOCRIT: 35.33%
  HEMOGLOBIN: 13.83 G/DL
  LEUKOCYTE COUNT: 13.43 x10E3/uL
  LYMPHOCYTE: 89.83%
  MEAN CORPUSCULAR HEMOGLOBIN: 24.88 pg
  MEAN CORPUSCULAR HEMOGLOBIN CONCENTRATION: 39.15 G/DL
  MEAN CORPUSCULAR VOLUME: 63.52 fL
  MONOCYTE: 1.17%
  NEUTROPHIL: 8.33%
  NUCLEATED RED BLOOD CELLS: 0 /100WBC
  PLATELET COUNT: 1181.33 x10E3/uL
  ALANINE AMINOTRANSFERASE: 48.33 u/L
  ALBUMIN: 4.1 G/DL
  ALKALINE PHOSPHATASE: 395 u/L
  ASPARTATE AMINOTRANSFERASE: 81.83 u/L
  BLOOD UREA NITROGEN: 15.83 mg/dL
  CARBON DIOXIDE: 24.17 mmol/L
  CHLORIDE: 103.83 MEQ/L
  CHOLESTEROL: 63.67 mg/dL
  CREATINE PHOSPHOKINASE: 372.83 u/L
  CREATININE: 0.18 mg/dL
  GLUCOSE: 173.83 mg/dL
  LACTATE DEHYDROGENASE: 188.33 u/L
  LIPASE: 9.5 u/L
  PHOSPHORUS: 11.95 mg/dL
  POTASSIUM: 5.99 MEQ/L
  SODIUM: 144.43 MEQ/L
  TOTAL BILIRUBIN: 0.15 mg/dL
  TOTAL PROTEIN: 5.95 G/DL
  URIC ACID: 1.82 mg/dL
[2]
  ABSOLUTE BASOPHIL: 0 CELLS/uL
  ABSOLUTE EOSINOPHIL: 26.67 CELLS/uL
  ABSOLUTE LYMPHOCYTE: 7583.83 CELLS/uL
  ABSOLUTE MONOCYTE: 131.33 CELLS/uL
  ABSOLUTE SEGMENTED NEUTROPHIL: 674.83 CELLS/uL
  BASOPHIL: 0%
  EOSINOPHIL: 0.33%
  ERYTHROCYTE COUNT: 5.78 x10E6/uL
  HEMATOCRIT: 36.48%
  HEMOGLOBIN: 14.03 G/DL
  LEUKOCYTE COUNT: 8.42 x10E3/uL
  LYMPHOCYTE: 89.83%
  MEAN CORPUSCULAR HEMOGLOBIN: 24.3 pg
  MEAN CORPUSCULAR HEMOGLOBIN CONCENTRATION: 38.52 G/DL
  MEAN CORPUSCULAR VOLUME: 63.15 fL
  MONOCYTE: 1.67%
  NEUTROPHIL: 8.17%
  NUCLEATED RED BLOOD CELLS: 0 /100WBC
  PLATELET COUNT: 1186.67 x10E3/uL
  ALANINE AMINOTRANSFERASE: 50.17 u/L
  ALBUMIN: 4.07 G/DL
  ALKALINE PHOSPHATASE: 367.5 u/L
  ASPARTATE AMINOTRANSFERASE: 81.67 u/L
  BLOOD UREA NITROGEN: 16.17 mg/dL
  CARBON DIOXIDE: 32.33 mmol/L
  CHLORIDE: 101.5 MEQ/L
  CHOLESTEROL: 65.33 mg/dL
  CREATINE PHOSPHOKINASE: 255.33 u/L
  CREATININE: 0.17 mg/dL
  GLUCOSE: 139.33 mg/dL
  LACTATE DEHYDROGENASE: 95 u/L
  LIPASE: 10.5 u/L
  PHOSPHORUS: 10.38 mg/dL
  POTASSIUM: 6.11 MEQ/L
  SODIUM: 145.55 MEQ/L
  TOTAL BILIRUBIN: 0.17 mg/dL
  TOTAL PROTEIN: 5.98 G/DL
  URIC ACID: 0.93 mg/dL
[3]
  ABSOLUTE BASOPHIL: 0 CELLS/uL
  ABSOLUTE EOSINOPHIL: 0 CELLS/uL
  ABSOLUTE LYMPHOCYTE: 14318.33 CELLS/uL
  ABSOLUTE MONOCYTE: 218 CELLS/uL
  ABSOLUTE SEGMENTED NEUTROPHIL: 1497 CELLS/uL
  BASOPHIL: 0%
  EOSINOPHIL: 0%
  ERYTHROCYTE COUNT: 5.61 x10E6/uL
  HEMATOCRIT: 35.47%
  HEMOGLOBIN: 13.67 G/DL
  LEUKOCYTE COUNT: 16.03 x10E3/uL
  LYMPHOCYTE: 89.33%
  MEAN CORPUSCULAR HEMOGLOBIN: 24.37 pg
  MEAN CORPUSCULAR HEMOGLOBIN CONCENTRATION: 38.53 G/DL
  MEAN CORPUSCULAR VOLUME: 63.23 fL
  MONOCYTE: 1.33%
  NEUTROPHIL: 9.33%
  NUCLEATED RED BLOOD CELLS: 0 /100WBC
  PLATELET COUNT: 1106.33 x10E3/uL
  ALANINE AMINOTRANSFERASE: 43.67 u/L
  ALBUMIN: 3.9 G/DL
  ALKALINE PHOSPHATASE: 402 u/L
  ASPARTATE AMINOTRANSFERASE: 70.33 u/L
  BLOOD UREA NITROGEN: 14.33 mg/dL
  CARBON DIOXIDE: 25.33 mmol/L
  CHLORIDE: 102 MEQ/L
  CHOLESTEROL: 72.33 mg/dL
  CREATINE PHOSPHOKINASE: 454.67 u/L
  CREATININE: 0.15 mg/dL
  GLUCOSE: 170.33 mg/dL
  LACTATE DEHYDROGENASE: 139 u/L
  LIPASE: 9 u/L
  PHOSPHORUS: 12.8 mg/dL
  POTASSIUM: 6.03 MEQ/L
  SODIUM: 142.73 MEQ/L
  TOTAL BILIRUBIN: 0.2 mg/dL
  TOTAL PROTEIN: 5.63 G/DL
  URIC ACID: 1.97 mg/dL
